Assay results published in PMC6445163, “Design, synthesis, and evaluation of novel 2-phenylpropionic acid derivatives as dual COX inhibitory-antibacterial agents” (Journal of Enzyme Inhibition and Medicinal Chemistry, 2017).
Values after ≈ are worked out from the molar mass of the structure shown.

Key:
COX-1 = molecular target: T1, COX-1 (Ovis aries, UniProt P05979); test: fluorometric COX-1 inhibitor screening kit assay; format: biochemical; details: for SI (selectivity index): IC50 (COX-1)/IC50 (COX-2); for IC50: fluorometric kit, 25 °C; for Selectivity: isoform preferred according to SI
T1 construct: purchased Biovision K548-100
T1 sequence (P05979 25-600): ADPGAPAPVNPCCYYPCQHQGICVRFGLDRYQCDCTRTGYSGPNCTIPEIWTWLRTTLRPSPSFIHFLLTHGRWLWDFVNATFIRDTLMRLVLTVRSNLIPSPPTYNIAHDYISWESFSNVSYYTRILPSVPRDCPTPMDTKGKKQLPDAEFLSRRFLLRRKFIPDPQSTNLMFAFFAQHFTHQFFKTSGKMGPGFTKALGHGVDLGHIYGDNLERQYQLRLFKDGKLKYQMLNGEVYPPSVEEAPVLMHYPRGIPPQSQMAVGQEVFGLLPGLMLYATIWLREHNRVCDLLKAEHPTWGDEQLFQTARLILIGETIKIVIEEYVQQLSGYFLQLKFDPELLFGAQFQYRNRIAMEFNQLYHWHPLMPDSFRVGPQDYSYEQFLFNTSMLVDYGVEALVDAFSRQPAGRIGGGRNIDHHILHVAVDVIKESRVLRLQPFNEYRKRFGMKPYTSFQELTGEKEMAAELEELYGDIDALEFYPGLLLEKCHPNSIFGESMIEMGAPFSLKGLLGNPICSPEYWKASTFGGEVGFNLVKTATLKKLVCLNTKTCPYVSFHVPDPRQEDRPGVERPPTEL
Description: (§1) Inhibitory potency of the compounds against COX-1 and COX-2 enzymes was determined using fluorometric COX-1 and COX-2 inhibitor screening kits (Biovision, Zurich, Switzerland). Experimental protocol was followed as described in the guides of the supplier[47]^,[48]. All of the pipettings in the assay were performed by Biotek Precision robotic system (BioTek Instruments, Inc., Winooski, VT). […] Appropriate two points (T1 and T2) in the linear range of the plot were chosen, and the corresponding fluorescence values (RFU1 and RFU2) were obtained. The slope for all samples, including enzyme control (EC), by dividing the net ΔRFU (RFU2–RFU1) values by the time ΔT (T2–T1) were calculated by using following equation: % Relative inhibition=(Slope of EC-Slope of S/Slope of EC)×100
(§2) This initial in vitro assay was done with two concentrations (10^−3 and 10^−4 M) for all compounds. […] The IC50 value was calculated from the plots of enzyme activity against concentrations by applying regression analyses on GraphPad Prism Version 5 (GraphPad Software, La Jolla, CA).
(§3) Selectivity indexes (SI) were expressed as IC50 (COX-1)/IC50 (COX-2). Selectivity toward COX-2 decreases as the corresponding SI decreases while selectivity toward COX-1 isoform increases as the corresponding SI decreases.

[1] = test system: Enterococcus faecalis (ATCC 29212); test: broth microdilution MIC (CLSI M07-A9), resazurin; format: cell-based; details: ATCC29212, 24 h
Description: (§4) Microbiological studies were performed according to following guides: CLSI reference […]-A9 broth microdilution method[49] for bacterial strains and EUCAST definitive (EDef 7.1) method[50] for Candida species. Synthesized compounds were tested for their in vitro growth inhibitory activity against Staphylococcus aureus (ATCC 25923), Enterococcus faecalis (ATCC 29212), Listeria monocytogenes (ATCC 1911), Klebsiella pneumoniae (NCTC 9633), Escherichia coli (ATCC 35218), E. coli (ATCC 25922) Candida albicans (ATCC 24433) Candida krusei (ATCC 6258) and Candida parapsilosis (ATCC 22019). Chloramphenicol and ketoconazole were used as control drugs. The cultures were obtained from the Mueller-Hinton broth (Difco) for the bacterial strains after overnight incubation at 37 °C. The yeasts were maintained in Roswell Park Memorial Institute (RPMI) after overnight incubation at 37 °C. […] Testing was carried out in Mueller-Hinton broth and RPMI at pH =7, and the two-fold serial dilutions technique was applied. The last well on the microplates containing only inoculated broth was kept as controls and the last well with no growth of microorganism was recorded to represent the minimum inhibitory concentration (MIC) expressed in μg/mL. For both the antibacterial and antifungal assays, the compounds were dissolved in DMSO. […] The completed plates were incubated for 24 h. At the end of the incubation, resazurin (20 μg/mL) was added into each well and plates were incubated for 2 h. MIC values were determined using a microplate reader at […]. Synthesized compounds (6a-6m) were evaluated for antimicrobial activity against various microorganisms such as Staphylococcus aureus (ATCC 25923), Enterococcus faecalis (ATCC 29212), Listeria monocytogenes (ATCC 1911), Klebsiella pneumoniae (NCTC 9633), Escherichia coli (ATCC 35218), E. coli (ATCC 25922)Candida albicans (ATCC 24433) Candida krusei (ATCC 6258) and Candida parapsilosis (ATCC 22019). […] Chloramphenicol and ketoconazole were used as standard drugs in the activity test. […] Besides, the compounds 6d, 6h, 6l and 6m indicated stronger antibacterial activity than the other compounds in the series.

[2] = test system: Listeria monocytogenes (ATCC 1911); test: broth microdilution MIC (CLSI M07-A9), resazurin; format: cell-based; details: ATCC1911, 24 h
Description: as §4

[3] = test system: Staphylococcus aureus (ATCC 25923); test: broth microdilution MIC (CLSI M07-A9), resazurin; format: cell-based; details: ATCC25923, 24 h
Description: as §4

[4] = test system: Escherichia coli (ATCC 35218); test: broth microdilution MIC (CLSI M07-A9), resazurin; format: cell-based; details: ATCC35218, 24 h, read-out: MIC Ec-1
Description: as §4

[5] = test system: Klebsiella pneumoniae (NCTC 9633); test: broth microdilution MIC (CLSI M07-A9), resazurin; format: cell-based; details: 24 h
Description: as §4

[6] = test system: Escherichia coli (ATCC 25922); test: broth microdilution MIC (CLSI M07-A9), resazurin; format: cell-based; details: ATCC25922, 24 h, read-out: MIC Ec-2
Description: as §4

[7] = test system: Candida krusei (ATCC 6258); test: broth dilution MIC (EUCAST EDef 7.1), resazurin; format: cell-based; details: Pichia kudriavzevii, ATCC6258, 24 h
Description: as §4

[8] = test system: Candida parapsilosis (ATCC 22019); test: broth dilution MIC (EUCAST EDef 7.1), resazurin; format: cell-based; details: ATCC22019, 24 h
Description: as §4

[9] = test system: Candida albicans (ATCC 24433); test: broth dilution MIC (EUCAST EDef 7.1), resazurin; format: cell-based; details: ATCC24433, 24 h
Description: as §4

COX-2 = molecular target: T2, COX-2 (Homo sapiens, UniProt P35354); test: fluorometric COX-2 inhibitor screening kit assay; format: biochemical; details: 25 °C
T2 construct: purchased Biovision K547-100
T2 sequence (P35354 18-604): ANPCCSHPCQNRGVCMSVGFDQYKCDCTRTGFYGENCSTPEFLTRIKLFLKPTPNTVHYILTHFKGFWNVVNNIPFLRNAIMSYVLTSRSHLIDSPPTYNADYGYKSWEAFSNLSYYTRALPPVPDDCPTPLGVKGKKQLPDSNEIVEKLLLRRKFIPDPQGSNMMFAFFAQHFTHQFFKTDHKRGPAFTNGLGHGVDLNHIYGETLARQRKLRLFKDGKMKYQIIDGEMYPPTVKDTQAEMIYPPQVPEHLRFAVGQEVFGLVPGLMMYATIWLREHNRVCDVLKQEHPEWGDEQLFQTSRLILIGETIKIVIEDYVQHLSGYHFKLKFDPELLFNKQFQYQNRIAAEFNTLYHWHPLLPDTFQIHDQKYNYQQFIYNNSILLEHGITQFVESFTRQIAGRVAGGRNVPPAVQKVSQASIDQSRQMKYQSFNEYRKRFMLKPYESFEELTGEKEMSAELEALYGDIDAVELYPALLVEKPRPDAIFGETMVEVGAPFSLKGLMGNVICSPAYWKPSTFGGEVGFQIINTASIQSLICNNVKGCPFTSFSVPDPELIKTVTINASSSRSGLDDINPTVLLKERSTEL
Description: as §1, §2, §3

MTT cytotoxicity test = details: mouse
Description: NIH/3T3 cells were incubated according to the supplier’s recommendations. NIH/3T3 cells were seeded at 1 × 10^4 cells into each well of 96-well plates. MTT assay was performed as previously described[51]^,[52].
There are a number of requirements to be fulfilled for successful new drug development. […] This assay is based upon the reduction of yellow MTT dye by metabolically active eukaryotic and prokaryotic cells to form the purple formazan product. The assay is generally used to examine cell viability and to estimate cell culture growth[66]^,[67].

SI (selectivity index) (COX-1) | IC50 (COX-1) [µM] | Selectivity (COX-1) | MIC [1] [µg/mL] | MIC [2] [µg/mL] | MIC [3] [µg/mL] | MIC [4] [µg/mL] | MIC Kp [5] [µg/mL] | MIC [6] [µg/mL] | MIC [7] [µg/mL] | MIC [8] [µg/mL] | MIC [9] [µg/mL] | melting point [°C] | IC50 (COX-2) [µM] | Compound | IC50 (MTT cytotoxicity test) [mM]
0.58 | 4.4 | COX-1 | 12.5 (≈ 38.3 µM) | 12.5 (≈ 38.3 µM) | 12.5 (≈ 38.3 µM) | 6.25 (≈ 19.1 µM) | 6.25 (≈ 19.1 µM) | 12.5 (≈ 38.3 µM) | 100 (≈ 306 µM) | 50 (≈ 153 µM) | 100 (≈ 306 µM) | 209.1 to 211.6 | 7.53 | Cc1ccc2[nH]c(SCc3ccc(C(C)C(=O)O)cc3)nc2c1 (centres unmarked) [Compound 6j, 2-(4-(((5-Methyl-1H-benzo[d]imidazol-2-yl)thio)methyl)phenyl)propanoic acid] | –
– | – | – | – | – | – | – | – | – | – | – | – | – | – | CC(C)Cc1ccc(C(C)C(=O)O)cc1 (centres unmarked) [Ibuprofen, reference compound] | ≥ 1
0.54 | 2.36 | COX-1 | 12.5 (≈ 37.9 µM) | 12.5 (≈ 37.9 µM) | 12.5 (≈ 37.9 µM) | 6.25 (≈ 19 µM) | 12.5 (≈ 37.9 µM) | 12.5 (≈ 37.9 µM) | 100 (≈ 304 µM) | 50 (≈ 152 µM) | 100 (≈ 304 µM) | 128.2 to 130.8 | 4.41 | CC(C(=O)O)c1ccc(CSc2nc3ccccc3s2)cc1 (centres unmarked) [Compound 6f, 2-(4-((Benzo[d]thiazol-2-ylthio)methyl)phenyl)propanoic acid] | –
0.63 | 3.71 | COX-1 | 12.5 (≈ 36 µM) | 12.5 (≈ 36 µM) | 12.5 (≈ 36 µM) | 6.25 (≈ 18 µM) | 6.25 (≈ 18 µM) | 12.5 (≈ 36 µM) | 50 (≈ 144 µM) | 50 (≈ 144 µM) | 50 (≈ 144 µM) | 208.8 to 211.5 | 5.91 | CC(C(=O)O)c1ccc(CSc2nc3cc(Cl)ccc3[nH]2)cc1 (centres unmarked) [Compound 6k, 2-(4-(((5-Chloro-1H-benzo[d]imidazol-2-yl)thio)methyl)phenyl)propanoic acid] | –
0.52 | 4.48 | COX-1 | 6.25 (≈ 17.5 µM) | 12.5 (≈ 35 µM) | 6.25 (≈ 17.5 µM) | 6.25 (≈ 17.5 µM) | 6.25 (≈ 17.5 µM) | 6.25 (≈ 17.5 µM) | 50 (≈ 140 µM) | 50 (≈ 140 µM) | 50 (≈ 140 µM) | 176.5 to 178.7 | 8.66 | CC(C(=O)O)c1ccc(CSc2nc3cc([N+](=O)[O-])ccc3[nH]2)cc1 (centres unmarked) [Compound 6m, 2-(4-(((5-Nitro-1H-benzo[d]imidazol-2-yl)thio)methyl)phenyl)propanoic acid] | –

Compound | SI (selectivity index) (COX-1) | IC50 (COX-1) [µM] | Selectivity (COX-1) | MIC [1] [µg/mL] | MIC [2] [µg/mL] | MIC [3] [µg/mL] | MIC [4] [µg/mL] | MIC Kp [5] [µg/mL] | MIC [6] [µg/mL] | MIC [7] [µg/mL] | MIC [8] [µg/mL] | MIC [9] [µg/mL] | melting point [°C] | IC50 (COX-2) [µM] | IC50 (MTT cytotoxicity test) [mM]
CS(=O)(=O)Nc1ccc([N+](=O)[O-])cc1Oc1ccccc1 [Nimesulide, reference compound] | – | 4.28 | – | – | – | – | – | – | – | – | – | – | – | – | ≥ 1
